Source: patent publication US5395610A, “Agents for potentiating the effects of antitumor agents and combating multiple drug resistance” (Burroughs-Wellcome Co., priority 1989, dated 1995)
Counter-ions that a name gives are not always drawn.

Tests used:
[1] = In vitro cytotoxicity / potentiation of Actinomycin D in Chinese hamster ovary cells, drug resistant C5S32 (MTT); assay type: cell-based; conditions: hamster, cho c5s32 cells, fraction of untreated cultures (1.00), read-out: Cytotoxicity, normalized absorbance, Drug Resistant C5S32, 0 (no Act D); for viability at 96 h, 1 µM: 1 μM potentiating agent alone; for viability at 96 h, 10 µM: 10 μM potentiating agent alone
[2] = test system: Chinese hamster ovary (CHO) cells, drug resistant C5S32; test: as above; assay type: cell-based; conditions: 96 h, fraction of Act D alone (1.00)
[3] = In vitro cytotoxicity / potentiation of Actinomycin D in human KB epidermoid carcinoma cells, wildtype KB 3-1 (MTT); assay type: cell-based; conditions: human, kb 3-1 cells, fraction of untreated cultures, read-out: Cytotoxicity, normalized absorbance, Wildtype KB 3-1, 0 (no Act D); for viability at 96 h, 1 µM: 1 μM potentiating agent alone; for viability at 96 h, 10 µM: 10 μM potentiating agent alone
[4] = test system: human KB epidermoid carcinoma cells, wildtype KB 3-1; test: as above; assay type: cell-based; conditions: 96 h, fraction of Act D alone
in vitro = assay type: cell-based, Chinese hamster; conditions: hamster, cho auxb1 cells
[5] = In vitro cytotoxicity / potentiation of Actinomycin D in human KB epidermoid carcinoma cells, drug resistant KB V-1 (MTT); assay type: cell-based; conditions: human, kb v-1 cells, fraction of untreated cultures, read-out: Cytotoxicity, normalized absorbance, Drug Resistant KB V-1, 0 (no Act D); for viability at 96 h, 1 µM: 1 μM potentiating agent alone; for viability at 96 h, 10 µM: 10 μM potentiating agent alone
[6] = test system: human KB epidermoid carcinoma cells, drug resistant KB V-1; test: as above; assay type: cell-based; conditions: 96 h, fraction of Act D alone
[7] = 1 μM potentiating agent + Act D 0.5 μM
[8] = 10 μM potentiating agent + Act D 0.5 μM
[9] = 1 μM potentiating agent + Act D 0.1 nM
[10] = 10 μM potentiating agent + Act D 0.1 nM
[11] = 1 μM potentiating agent + Act D 20 nM
[12] = 10 μM potentiating agent + Act D 20 nM

SMILES	viability at 96 h, 1 µM [1] [%]	viability at 96 h, 10 µM [1] [%]	Synergism with Actinomycin D, normalized absorbance, Drug Resistant C5S32, +ACT D [2, 7]	Synergism with Actinomycin D, normalized absorbance, Drug Resistant C5S32, +ACT D [2, 8]	viability at 96 h, 1 µM [3] [%]	viability at 96 h, 10 µM [3] [%]	Synergism with Actinomycin D, normalized absorbance, Wildtype KB 3-1, +ACT D [4, 9]	Synergism with Actinomycin D, normalized absorbance, Wildtype KB 3-1, +ACT D [4, 10]	viability at 96 h, 1 µM (in vitro) [%]	viability at 96 h, 10 µM (in vitro) [%]	viability at 96 h, 1 µM [5] [%]	viability at 96 h, 10 µM [5] [%]	Synergism with Actinomycin D, normalized absorbance, Drug Resistant KB V-1, +ACT D [6, 11]	Synergism with Actinomycin D, normalized absorbance, Drug Resistant KB V-1, +ACT D [6, 12]
Brc1ccc2c(c1)/C(=C\CCN1CCCC1)c1ccccc1CO2 [(G), (Z)-1-[3-(2-Bromo-6,11-dihydrodibenz [b,e]-oxepin-11-ylidene)propyl]pyrrolidine]	54	15	0.47	0.10	87	74	0.80	0.87	100	100	86	70	0.91	0.35
Brc1ccc2c(c1)/C(=C/CCN1CCCC1)c1ccccc1CO2 [(K), (E)-1-[3-(2-Bromo-6,11-dihydrodibenz [b,e]-oxepin-11-ylidene)propyl]pyrrolidine]	100	100	0.79	0.28	85	100	0.77	0.03	83	87	86	8	0.88	0.13
CN(C)CC/C=C1/c2ccccc2COc2ccc(F)cc21 [(Q), (Z)-3-(2-fluoro-6,11-dihydrodibenz [b,e]oxepin-11-ylidene)-N,N-dimethylpropylamine]	53	33	0.69	0.37	92	77	0.91	0.78	97	93	86	80	0.83	0.65
C(/CN1CCCC1)=C1\c2ccccc2COc2ccccc21 [(H), hydrochloride]	82	53	0.95	0.51					100	94				
Brc1ccc2c(c1)/C(=C/CCN1CCCC1)c1cc(Br)ccc1OC2 [(O), (Z)-1-[3-(2,9-dibromo-6,11-dihydrodibenz [b,e]-oxepin-11-ylidene)propyl]pyrrolidine]	48	35	0.58	0.38	79	64	0.81	0.73	100	93	74	7	0.78	0.06
Brc1ccc2c(c1)/C(=C\CCN1CCCC1)c1cc(Br)ccc1OC2 [(R), (E)-1-[3-(2,9-dibromo-6,11-dihydrodibenz [b,e]-oxepin-11-ylidene)propyl]pyrrolidine]	50	11	0.52	0.11	78	36	0.84	0.34	99	95	87	6	0.90	0.02
CN(C)CC/C=C1/c2ccccc2COc2cc(Br)ccc21 [(E)]	85	48	0.66	0.35	89	89	0.85	0.77	100	100	88	45	0.74	0.01
CN(C)CCC=C1c2ccc(Br)cc2COc2ccccc21 [(L), (E)/(Z) -3-(8-Bromo-6,11-dihydrodibenz [b,e]-oxepine-11-ylidene)-N,N-dimethylpropylamine (80% Z:20% E)]	92	99	0.85	0.42	100	97		0.94	83	81	98	51	1.00	0.23
CN(C)CC/C=C1\c2cc(Br)ccc2COc2ccc(Br)cc21 [(V), (E)-3-(2,9-Dibromo-6,11-dihydrodibenz [b,e]-oxepin-11-ylidene)-N,N-dimethylpropylamine]	91	75	0.87	0.20					86	77				
CCN(CC)CC/C=C1\c2ccccc2COc2ccc(Br)cc21 [(N), (E) -3-(2-Bromo-6,11-dihydrodibenz [b,e]oxepin-11-ylidene)-N, N-diethylpropylamine]	100	80	0.85	0.33					86	83				
CN(C)CCC=C1c2ccccc2COc2ccccc21 [(W), doxepin, reference compound]	98	55	0.86	0.48					100	100				
Brc1ccc2c(c1)/C(=C/CCN1CCCC1)c1ccccc1OC2 [(M), (Z)-1-[3-(9-Bromo-6,11-dihydrodibenz [b,e]-oxepin-11-ylidene)propyl]pyrrolidine]	86	100	0.83	0.35	100	96			79	84	95	65	1.00	0.31
CN(C)CC/C=C1/c2cc(Br)ccc2COc2ccc(Br)cc21 [(U), (Z)-3-(2,9-Dibromo-6,11-dihydrodibenz [b,e]-oxepin-11-ylidene)-N,N-dimethylpropylamine]	94	74	0.93	0.24					84	79				
